Measured values: patent publication US20120039796A1, “Novel method for creating, suspending and stabilizing electronically modified oxygen derivatives, along with creating, suspending and stabilizing electronically modified reaction intermediates, in a bio compatible fluorocarbon suspension, for the purpose of inducing a cascading immune response in …” (priority 2010, published 2012)

Legend:
[1] = cited from earlier work
[2] = target: T1, TrxR (Homo sapiens, UniProt Q16881); settings: cited from earlier work
T1 sequence (Q16881 151-649 limits assumed): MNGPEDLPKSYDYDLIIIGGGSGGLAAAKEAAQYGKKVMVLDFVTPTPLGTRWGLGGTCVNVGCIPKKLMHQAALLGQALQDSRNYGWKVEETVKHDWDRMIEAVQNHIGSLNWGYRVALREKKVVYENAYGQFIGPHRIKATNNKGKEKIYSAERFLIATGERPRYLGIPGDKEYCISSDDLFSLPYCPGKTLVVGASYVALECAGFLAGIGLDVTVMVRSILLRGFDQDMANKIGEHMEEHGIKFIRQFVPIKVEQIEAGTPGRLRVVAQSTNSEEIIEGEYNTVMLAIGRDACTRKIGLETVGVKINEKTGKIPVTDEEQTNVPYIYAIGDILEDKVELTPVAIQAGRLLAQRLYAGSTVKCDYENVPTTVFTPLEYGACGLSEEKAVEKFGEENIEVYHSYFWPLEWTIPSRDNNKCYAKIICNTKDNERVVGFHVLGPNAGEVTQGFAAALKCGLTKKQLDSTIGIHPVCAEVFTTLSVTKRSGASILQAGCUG

[3] = test system: cancer cell cultures; settings: cited from earlier work
[4] = cited from earlier work; remark: listed apart in the source
[5] = Decay of ozone bubbled into distilled water, absorbance at 260 nm; format: physicochemical
Experimental: 15 ml of distilled h20 was used to bubble a mixture of ozone/oxygen through the sample for 30 min in a glass bubbler using a custom made proton exchange membrane ozone machine, which then 0.01 ml sample was quickly placed in a hatch DR 4000 u spectrometer, the machine was zeroed before the sample was placed in, also the absorbance wave length was set for 260 nm, the detection absorbance band of ozone, initial results at the peak were 0.590 ABS, but quickly decayed and after 20 min the ozone present in the sample was completely gone. This is the main problem with modem ozone therapy, the sample disappears with a predictable results extremely fast decay rate with in 20 min, and there is not enough of a concentration left to make a therapeutic difference, especially for burns, ulcerations, tendon injections.

[6] = Stability of ozone in 95% pure Fluorodecalin (C10F18), non-frozen, continuous absorbance at 260 nm; format: physicochemical
Experimental: (§1) After the ten hours expired, the spectrometer was quickly restarted for another 10 hours, were after the first 4 hours and 20 min in the second run is where the sample reached its half life. Once the 20 hours expired, the ABS reading was 0.082 were it took another 10 hours for Ozone too fully decay.
In the first PFC experiment, the ozone was stable within the PFC matrix for over 5 hours without any appreciable decay, after 5 hours the sample started to deviate and when the 10 hours mark was reached, the reading was around 0.600 ABS, in the last 5 hours of the run is when the sample lost 0.09 ABS, this was excellent result. In the second part of the experiment is where the sample decay accelerated. […] It should be noted the sample of PFC was 95% pure, and was the only purity I could attain at the time for the experiment and due to time constraints another sample could not have been attained. It should also be noted when the sample was finally removed from the machine for clean up, about 60 hours later after the initial experiment, half the sample evaporated. […] The utility of this patent is self evident; this invention solves the problems that plagued modern ozone therapy for the last 100 years.

[7] = Stability of ozone in Fluorodecalin stored frozen at -50 C for 30 days, absorbance at 260 nm; format: physicochemical
Experimental: as §1
After 30 days, the sample that was placed in the freezer was removed out of the freezer, with in 5 min the sample was completely thawed, which then a 0.01 ml sample was quickly placed it into the spectrometer were 3 consecutive single non timed scans were taken, with an average highest ABS reading of 0.688.

FC1(F)C(F)(F)C(F)(F)C2(F)C(F)(F)C(F)(F)C(F)(F)C(F)(F)C2(F)C1(F)F (centres unmarked) [perfluorodecalin]
volume of oxygen dissolved by 100 ml ([1]; 100 ml perfluorodecalin at 25° C., oxygen at STP): 49 mL

O=c1c(O)c(-c2ccc(O)c(O)c2)oc2cc(O)cc(O)c12 [quercetin]
inhibitory effect on TrxR [2]: NADPH-, concentration-, and time-dependent inhibitory effect

O=C1c2c(O)cc(O)cc2O[C@H](c2ccc(O)c(O)c2)[C@H]1O [taxifolin]
inhibitory effect on TrxR [2]: NADPH-, concentration-, and time-dependent inhibitory effect

O=O [oxygen]
solubility in PFC liquids ([1]; PFC liquids for biomedical applications, 37° C., 1 atm): 40-50 vol. %
solubility in water ([1]; water, 37° C., 1 atm): 2.5 vol. %

catechin
inhibitory effect on TrxR [2]: NADPH-, concentration-, and time-dependent inhibitory effect

O=CC[C@@H](O)[C@H](O)[C@H](O)CO [Example 2-DG, 2-Deoxy-D-glucose]
apoptosis ([3]; by glucose deprivation): induces apoptosis
effect on cell growth [3]: hampers cell growth

O=c1c(O)c(-c2cc(O)c(O)c(O)c2)oc2cc(O)cc(O)c12 [myricetin]
inhibitory effect on TrxR [2]: NADPH-, concentration-, and time-dependent inhibitory effect

O=[O+][O-] [ozone]
time stable in air at -50 degrees C ([4]; air, -50 degrees C): about 3 months
half-life in air ([4]; air): 12 h
half-life in saline ([4]; saline): less than 20 min
half-life in water ([4]; watery solution): about 20 minutes
time after which ozone in the sample was completely gone ([5]; distilled h20): 20 min
initial absorbance at the peak ([5]; ozone/oxygen bubbled 30 min through distilled h20, 260 nm): 0.590 ABS
initial absorbance at the highest peak ([6]; 20/80 ozone/oxygen bubbled 20 min in Fluorodecalin, 260 nm): around 0.690 ABS
absorbance at the 10 hours mark ([6]; Fluorodecalin, non-frozen): around 0.600 ABS
absorbance once 20 hours expired ([6]; Fluorodecalin, non-frozen): 0.082 ABS
further time for ozone to fully decay after the 20 hours ([6]; Fluorodecalin, non-frozen): 10 h
deviation in ABS over the first 10 hours ([6]; Fluorodecalin, non-frozen, first 10 hour run): 0.09 ABS
amount dissolved in perfluorodecalin relative to oxygen ([1]; at stp): 13 times
stability in the frozen state ([7]; 30 days at -50 C): fully stabilized
average highest ABS reading after storage ([7]; 30 days in freezer at -50 C, thawed, 3 scans): 0.688 ABS
